Literature values as cited in US11154507B2, “Freeze-dried aripiprazole formulation” (OTSUKA PHARMACEUTICAL CO., LTD., priority 2011, dated 2021).

Settings: room temperature

- solubility in water: < 1 µg/mL
SMILES: O=C1CCc2ccc(OCCCCN3CCN(c4cccc(Cl)c4Cl)CC3)cc2N1 [Aripiprazole]
